# Patent US5260465A, “Inhibitors of farnesyl protein transferase” (Merck & Co., Inc., priority 1991, dated 1993)
# Key:
# [1] = tested on: Ras farnesylation; conditions: Hancock et al., Casey et al., Schafer et al.; cited from earlier work
# [2] = tested on: HMG-CoA reductase; conditions: cited from earlier work
# [3] = target: T1, Farnesyl-protein transferase (FTase) from bovine brain (Bos taurus, UniProt P29702+P49355); assay: Inhibition of Ras farnesylation in vitro (FTase assay with Ras-CVLS and [3H]FPP); type: biochemical; conditions: for IC50: Ras-CVLS 3.5 μM, 0.25 μM [3H]FPP, partially purified enzyme, compound (9) or (10), under assay conditions open dicarboxylate form
# T1 construct: Farnesyl-protein transferase (FTase) from bovine brain was chromatographed on DEAE-Sephacel; from tissue; host or cells: bovine brain, partially purified (DEAE-Sephacel, N-octyl agarose, mono Q)
# Experimental: The intrinsic farnesyl-protein transferase (FTase) activity of representative compounds of this invention was measured by the assay as described below:
# Farnesyl-protein transferase (FTase) from bovine brain was chromatographed on DEAE-Sephacel (Pharmacia, 0-0.8M NaCl gradient elution), N-octyl agarose (Sigma, 0-0.6M NaCl gradient elution), and a mono Q HPLC column (Pharmacia, 0-0.3M NaCl gradient). Ras-CVLS (Cys-Val-Leu-Ser) at 3.5 μM, 0.25 μM [^3 H]FPP, and the indicated compounds were incubated with this partially purified enzyme preparation. The FTase inhibition data presented below is a measurement of the ability of the test compound to inhibit Ras farnesylation in vitro.
# [4] = pH-dependent equilibrium / solution form of anhydride (9) and diacid (10), followed by UV; type: physicochemical; conditions: for predominant form in solution (diacid/anhydride equilibrium): in a solution, pH dependent
# Description: The equilibrium between diacid (10) and anhydride (9) in a solution is pH dependent. […] However, when basified with dil NaOH, this maximum shifted to λmax 243 run. This shift is clear evidence of opening of the anhydride into the diacid. [drawing 8]
# The latter band underwent a hypsochromic shift to 240 run after addition of dil NAOH.
Structure (SMILES),Inhibition of Ras farnesylation in vivo [1],inhibition of HMG-CoA reductase [2],IC50 [3] [nM],Ras farnesyl transferase inhibitory activity of the diisopropylethylamine salt ([3]; open diacid (10) trapped as a diisopropylethylamine salt),"form under assay conditions ([4]; CH3OH-HEPES buffer solution (7:5), pH 7.5)",predominant form in solution (diacid/anhydride equilibrium) [4],existence in solution by pH ([4]; in solution),reactivity with CH3OH ([4]; methanolic solution)
CC[C@H](C)C(=O)O[C@H]1CCC=C2C=C[C@H](C)[C@H](CC[C@@H]3C[C@@H](O)CC(=O)O3)[C@H]21 [compactin],Inhibition of Ras farnesylation in vivo has been demonstrated,inhibit HMG-CoA reductase,,,,,,
CCCCCCCC/C=C\CCCCCC/C(C(=O)O)=C(\C)C(=O)O [Compound (10)],,,110,without any loss of Ras farnesyl transferase inhibitory activity,exists substantially in the open dicarboxylate form,predominates when the solution is basic,exists in solution at pH 7 and above,
CC[C@H](C)C(=O)O[C@H]1C[C@@H](C)C=C2C=C[C@H](C)[C@H](CC[C@@H]3C[C@@H](O)CC(=O)O3)[C@H]21 [lovastatin],Inhibition of Ras farnesylation in vivo has been demonstrated,inhibit HMG-CoA reductase,,,,,,
CCCCCCCC/C=C\CCCCCCC1=C(C)C(=O)OC1=O [Compound (9)],,,110,,,predominates when the solution is acidic,,reacts slowly with CH3 OH
